Literature values in PMC9411704, “Assessment of the Carcinogenic Potential of Pretomanid in Transgenic Tg.rasH2 Mice” (International Journal of Toxicology, 2022).

Set-up: method as in PMID 32130813
Settings: 200 mg/day, clinical study NCT02333799; cited from earlier work

O=[N+]([O-])c1cn2c(n1)OC[C@@H](OCc1ccc(OC(F)(F)F)cc1)C2 [Pretomanid, (6S)-2-nitro-6-{[4-(trifluoromethoxy)benzyl]oxy}-6,7-dihydro-5H-imidazo[2,1-b][1,3]oxazine]
Human AUC0-24: 50.9 µg·h/mL
